In brackets after ≈: the same amount, converted by molar mass.
Key:
Assay in all cases: Broth microdilution MIC in iron-depleted CAMHB (IDM)
Format in all cases: cell-based
[1] = test system: P. aeruginosa CDC-0054 producing VIM-4, OXA-50, and PAO; conditions: Pseudomonas aeruginosa, read-out: Minimum Inhibitory Concentration, P. aeruginosa CDC-0054
Procedure: (§1) Example IV: In Vitro Antibacterial Assays in Iron-Depleted Cation-Adjusted Mueller-Hinton Broth
(§2) To determine the ability of test compounds to inhibit the growth bacterial strains under conditions of iron-depletion, classic cell based broth microdilution minimum inhibitory concentration (MIC) assays were employed. MIC assays are performed according to CLSI methods except where otherwise noted (CLSI, 2018 and CLSI, 2019). The reference type strain E. coli ATCC 25922 was used to determine the ability of the PBP inhibitors to inhibit the growth of Enterobacteriaceae. Wild-type P. aeruginosa ATCC 27853, A. baumannii ATCC 17978 and A. baumannii ATCC 19606, along with the hyper-permeable P. aeruginosa ATCC 35151, an engineered efflux pump-compromised strain of P. aeruginosa (ΔmexAB-oprM), and an engineered efflux-pump compromised strain of A. baumannii IL123 (ABΔ3-ARAEcPore) were used to determine the ability of PBP inhibitors to penetrate the outer membrane of P. aeruginosa and A. baumannii and assess antibacterial activity against these important gram-negative organisms.
(§3) Briefly, cryo-preserved bacterial cultures of challenge strains are streaked for isolation on appropriate agar medium, in this case cation-adjusted Mueller Hinton agar. Following incubation to allow growth of the colonies, plates are sealed with parafilm and stored refrigerated for up to two weeks. For preparation of assay inoculum and to ensure low variability, at least 5 colonies are picked from the agar plates with an inoculating loop and aseptically transferred to a culture tube containing 3 mL of iron-depleted cation-adjusted Mueller Hinton broth (IDM)—see below for IDM preparation. The broth culture is grown for 3-5 hours at 37° C. with shaking at 200 rpm. Meanwhile, 2-fold serial dilutions of test compounds are conducted in a 96-well plate with a final volume of 75 μL per well at 2-fold the final desired concentration. After the dilution plates are set up the growing cultures are then diluted in a cuvette containing IDM and the optical density is measured at 600 nm. The inoculum is diluted such that 75 μL of this culture in IDM results in a starting bacterial concentration of 2-8×10^5 CFU/mL when added to the dilution plates. The plates are incubated for 16-20 hours for Enterobacteriaceae and Pseudomonas and 20-24 hours for Acinetobacter at 37° C. The MIC values are read visually as the lowest concentration well with no bacterial growth.
(§4) Method for Iron-Depleted Cation-Adjusted Mueller Hinton Broth (IDM) Preparation:
(§5) • Prepare cation-adjusted Mueller Hinton broth as per the manufacturer's recommendations and autoclave. • Add 100 g/L Chelex 100 resin, cover with foil and incubate with stirring for 2 hours • Remove Chelex 100 resin by filtration with 0.45 μm filter flask • Add the following back to the medium: • CaCl2 dihydrate: 82.5 mg/L • MgCl2 hexahydrate: 94.1 mg/L • ZnSO4: 10 μM • Adjust pH of medium to 7.3 with 5 N HCl • Sterilize using a 0.22 µm filter flask

[2] = test system: P. aeruginosa (ΔmexAB-oprM); conditions: Pseudomonas aeruginosa, read-out: Minimum Inhibitory Concentration, P. aeruginosa ΔmexAB-OprM
Procedure: as §1, §2, §3, §4, §5

[3] = test system: A. baumannii CDC-0036 OXA-65, and OXA-24; conditions: Acinetobacter baumannii, read-out: Minimum Inhibitory Concentration, CDC-0036
Procedure: as §1, §2, §3, §4, §5

A. baumannii ATCC 19606 = conditions: Acinetobacter baumannii, ATCC19606, read-out: Minimum Inhibitory Concentration, ATCC 19606
Procedure: as §1, §2, §3, §4, §5

A. baumannii ATCC 17978 = conditions: Acinetobacter baumannii, ATCC17978, read-out: Minimum Inhibitory Concentration, ATCC 17978
Procedure: as §1, §2, §3, §4, §5

[4] = test system: A. baumannii CDC-0083 producing NDM-1, PER-7, OXA-23, and OXA-69; conditions: Acinetobacter baumannii, read-out: Minimum Inhibitory Concentration, CDC-0083
Procedure: as §1, §2, §3, §4, §5

[5] = test system: P. aeruginosa CDC-0095 producing OXA-50, and PAO; conditions: Pseudomonas aeruginosa, read-out: Minimum Inhibitory Concentration, P. aeruginosa CDC-0095
Procedure: as §1, §2, §3, §4, §5

[6] = test system: A. baumannii CDC-0033 producing NDM-1, and OXA-94; conditions: Acinetobacter baumannii, read-out: Minimum Inhibitory Concentration, CDC-0033
Procedure: as §1, §2, §3, §4, §5

P. aeruginosa ATCC 27853 = conditions: Pseudomonas aeruginosa, ATCC27853, read-out: Minimum Inhibitory Concentration, P. aeruginosa ATCC 27853
Procedure: as §1, §2, §3, §4, §5

P. aeruginosa ATCC 35151 = conditions: Pseudomonas aeruginosa, ATCC35151; iron-depleted MHB (IDM); hyper-permeable strain; read-out: Minimum Inhibitory Concentration, P. aeruginosa ATCC 35151
Procedure: as §1, §2, §3, §4, §5

[7] = test system: P. aeruginosa CDC-0090 producing KPC-5, OXA-50, and PAO; conditions: Pseudomonas aeruginosa, read-out: Minimum Inhibitory Concentration, P. aeruginosa CDC-0090
Procedure: as §1, §2, §3, §4, §5

[8] = test system: A. baumannii IL123 (ABΔ3-ARAEcPore); conditions: Acinetobacter baumannii, read-out: Minimum Inhibitory Concentration, IL-2123
Procedure: as §1, §2, §3, §4, §5

Row | SMILES | MIC [1] | MIC [2] | MIC [3] | MIC (A. baumannii ATCC 19606) | MIC (A. baumannii ATCC 17978) | MIC [4] | MIC [5] | MIC [6] | MIC (P. aeruginosa ATCC 27853) | MIC (P. aeruginosa ATCC 35151) | MIC [7] | MIC [8]
1 | CCN1CCN(C(=O)NC(C(=O)N[C@H]2Cc3cccc(C(=O)O)c3OB2O)c2cccc(NC(=O)c3ccc(O)c(O)c3Cl)c2)C(=O)C1=O (stereo partly drawn) [Example 73, (3R)-3-(2-(3-(2-chloro-3,4-dihydroxybenzamido)phenyl)-2-(4-ethyl-2,3-dioxopiperazine-1-carboxamido)acetamido)-2-hydroxy-3,4-dihydro-2H-benzo[e][1,2]oxaborinine-8-carboxylic acid] | 2 to 4 µg/mL (≈ 2.88 to 5.76 µM) | 0.25 µg/mL (≈ 0.36 µM) | 32 to 64 µg/mL (≈ 46.1 to 92.2 µM) | 2 to 4 µg/mL (≈ 2.88 to 5.76 µM) | 2 to 4 µg/mL (≈ 2.88 to 5.76 µM) | 32 to 64 µg/mL (≈ 46.1 to 92.2 µM) | 2 to 4 µg/mL (≈ 2.88 to 5.76 µM) | 32 to 64 µg/mL (≈ 46.1 to 92.2 µM) | 8 to 16 µg/mL (≈ 11.5 to 23.1 µM) | 0.25 µg/mL (≈ 0.36 µM) | 2 to 4 µg/mL (≈ 2.88 to 5.76 µM) | –
2 | O=C(O)c1c(F)ccc2c1OB(O)[C@@H](NC(=O)[C@H](NC(=O)N1CCNC1=O)c1c(F)cc(O)c(O)c1Cl)C2 (single isomer, unassigned) [Example 34] | 0.5 to 1 µg/mL (≈ 0.901 to 1.8 µM) | 0.25 µg/mL (≈ 0.451 µM) | 0.5 to 1 µg/mL (≈ 0.901 to 1.8 µM) | 0.25 µg/mL (≈ 0.451 µM) | 0.25 µg/mL (≈ 0.451 µM) | 0.5 to 1 µg/mL (≈ 0.901 to 1.8 µM) | 32 to 64 µg/mL (≈ 57.7 to 115 µM) | 0.5 to 1 µg/mL (≈ 0.901 to 1.8 µM) | 0.5 to 1 µg/mL (≈ 0.901 to 1.8 µM) | 0.25 µg/mL (≈ 0.451 µM) | 0.5 to 1 µg/mL (≈ 0.901 to 1.8 µM) | 2 to 4 µg/mL (≈ 3.61 to 7.21 µM)
3 | CS(=O)(=O)N1CCN(C(=O)NC(C(=O)N[C@H]2Cc3ccc(F)c(C(=O)O)c3OB2O)c2ccc(O)c(O)c2Cl)C1=O (stereo partly drawn) [Example 23, (3R)-3-(2-(2-chloro-3,4-dihydroxyphenyl)-2-(3-(methylsulfonyl)-2-oxoimidazolidine-1-carboxamido)acetamido)-7-fluoro-2-hydroxy-3,4-dihydro-2H-benzo[e][1,2]oxaborinine-8-carboxylic acid] | 0.5 to 1 µg/mL (≈ 0.813 to 1.63 µM) | 0.25 µg/mL (≈ 0.407 µM) | 8 to 16 µg/mL (≈ 13 to 26 µM) | 0.25 µg/mL (≈ 0.407 µM) | 0.25 µg/mL (≈ 0.407 µM) | 0.5 to 1 µg/mL (≈ 0.813 to 1.63 µM) | 8 to 16 µg/mL (≈ 13 to 26 µM) | 8 to 16 µg/mL (≈ 13 to 26 µM) | 0.5 to 1 µg/mL (≈ 0.813 to 1.63 µM) | 0.25 µg/mL (≈ 0.407 µM) | 0.5 to 1 µg/mL (≈ 0.813 to 1.63 µM) | –
4 | CCN1CCN(C(=O)NC(C(=O)N[C@H]2Cc3cccc(C(=O)O)c3OB2O)c2ccc(O)c(NC(=O)c3ccc(O)c(O)c3Cl)c2)C(=O)C1=O (stereo partly drawn) [Example 74, (3R)-3-(2-(3-(2-chloro-3,4-dihydroxybenzamido)-4-hydroxyphenyl)-2-(4-ethyl-2,3-dioxopiperazine-1-carboxamido)acetamido)-2-hydroxy-3,4-dihydro-2H-benzo[e][1,2]oxaborinine-8-carboxylic acid] | 0.5 to 1 µg/mL (≈ 0.704 to 1.41 µM) | 0.5 to 1 µg/mL (≈ 0.704 to 1.41 µM) | 32 to 64 µg/mL (≈ 45.1 to 90.2 µM) | 32 to 64 µg/mL (≈ 45.1 to 90.2 µM) | 32 to 64 µg/mL (≈ 45.1 to 90.2 µM) | 32 to 64 µg/mL (≈ 45.1 to 90.2 µM) | 0.5 to 1 µg/mL (≈ 0.704 to 1.41 µM) | 32 to 64 µg/mL (≈ 45.1 to 90.2 µM) | 8 to 16 µg/mL (≈ 11.3 to 22.5 µM) | 0.25 µg/mL (≈ 0.352 µM) | 32 to 64 µg/mL (≈ 45.1 to 90.2 µM) | –
5 | CC(C)(C)[C@@H](NC(=O)N1CCN(CCNC(=O)c2c(F)cc(O)c(O)c2Cl)C(=O)C1=O)C(=O)N[C@H]1Cc2ccc(F)c(C(=O)O)c2OB1O [Example 80, (R)-3-((R)-2-(4-(2-(2-chloro-6-fluoro-3,4-dihydroxybenzamido)ethyl)-2,3-dioxopiperazine-1-carboxamido)-3,3-dimethylbutanamido)-7-fluoro-2-hydroxy-3,4-dihydro-2H-benzo[e][1,2]oxaborinine-8-carboxylic acid] | 2 to 4 µg/mL (≈ 2.82 to 5.63 µM) | 0.25 µg/mL (≈ 0.352 µM) | 8 to 16 µg/mL (≈ 11.3 to 22.5 µM) | 2 to 4 µg/mL (≈ 2.82 to 5.63 µM) | 0.5 to 1 µg/mL (≈ 0.704 to 1.41 µM) | 32 to 64 µg/mL (≈ 45.1 to 90.2 µM) | 2 to 4 µg/mL (≈ 2.82 to 5.63 µM) | 8 to 16 µg/mL (≈ 11.3 to 22.5 µM) | 2 to 4 µg/mL (≈ 2.82 to 5.63 µM) | 0.25 µg/mL (≈ 0.352 µM) | 2 to 4 µg/mL (≈ 2.82 to 5.63 µM) | –
